Here are results for 23 compounds from patent publication US11254663B2 (BRISTOL-MYERS SQUIBB COMPANY, priority 2019, dated 2022).

The experiment addresses FXR (Homo sapiens (Human), UniProt Q96RI1). The experiment is described as follows: FXR EC50 (FXR agonist potency reported with each Example). It is filed as cell-based.

Sequence of FXR (Q96RI1 262-486): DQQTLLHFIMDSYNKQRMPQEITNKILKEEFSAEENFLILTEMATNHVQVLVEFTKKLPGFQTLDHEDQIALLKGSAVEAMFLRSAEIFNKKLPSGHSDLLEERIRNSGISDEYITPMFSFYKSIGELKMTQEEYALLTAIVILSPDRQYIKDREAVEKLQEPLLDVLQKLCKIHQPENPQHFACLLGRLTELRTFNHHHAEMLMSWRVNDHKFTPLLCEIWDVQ

Broadly, the EC50 is the concentration that produces a half-maximal response. Low values mean higher potency in that assay, high ones lower potency in that assay. Consider `CC(C)c1noc(C23CCC(CN(C(=O)C45CC(F)(C4)C5)c4cccc(-c5noc(C6(C)CC6)n5)c4)(CC2)CC3)n1` [Example 175, 3-fluoro-N-((4-(3-isopropyl-1,2,4-oxadiazol-5-yl)bicyclo[2.2.2]octan-1-yl)methyl)-N-(3-(5-(1-methylcyclopropyl)-1,2,4-oxadiazol-3-yl)phenyl)bicyclo[1.1.1]pentane-1-carboxamide], for which the EC50 was 54 nM. In other words, the double-digit nanomolar range.

In turn, `O=C(N(CC12CCC(c3nc(C4CC4)no3)(CC1)CC2)c1cccc(-c2noc(C34CC(F)(C3)C4)n2)c1)C12CC(F)(C1)C2` [Example 102, N-((4-(3-cyclopropyl-1,2,4-oxadiazol-5-yl)bicyclo[2.2.2]octan-1-yl)methyl)-3-fluoro-N-(3-(5-(3-fluorobicyclo[1.1.1]pentan-1-yl)-1,2,4-oxadiazol-3-yl)phenyl)bicyclo[1.1.1]pentane-1-carboxamide] yielded a half-maximal effective concentration (EC50) of 1040 nM. To `Cn1nc(-c2cccc(N(CC34CCC(c5noc(C(C)(C)C)n5)(CC3)CC4)C(=O)C34CC(F)(C3)C4)c2)cc1C(C)(C)C` [Example 214, N-((4-(5-(tert-butyl)-1,2,4-oxadiazol-3-yl)bicyclo[2.2.2]octan-1-yl)methyl)-N-(3-(5-(tert-butyl)-1-methyl-1H-pyrazol-3-yl)phenyl)-3-fluorobicyclo[1.1.1]pentane-1-carboxamide] belongs 89 nM; to `COC1(c2nc(-c3cccc(N(CC45CCC(c6nc(C7CC7)no6)(CC4)CC5)C(=O)C45CC(F)(C4)C5)c3)no2)CC1` [Example 147, N-((4-(3-cyclopropyl-1,2,4-oxadiazol-5-yl)bicyclo[2.2.2]octan-1-yl)methyl)-3-fluoro-N-(3-(5-(1-methoxycyclopropyl)-1,2,4-oxadiazol-3-yl)phenyl)bicyclo[1.1.1]pentane-1-carboxamide], 79 nM.

Compound `O=C(C1CC(C(F)F)C1)N(CC12CCC(c3nc(C4CC4)no3)(CC1)CC2)c1cccc(-c2cnc(C3CC3)o2)c1` (centres unmarked) [Example 24, N-((4-(3-cyclopropyl-1,2,4-oxadiazol-5-yl)bicyclo[2.2.2]octan-1-yl)methyl)-N-(3-(2-cyclopropyloxazol-5-yl)phenyl)-3-(difluoromethyl)cyclobutane-1-carboxamide] yielded an EC50 of 281 nM. Compared with the last compound, the EC50 is about 3.6-fold higher. To `O=C(C1CC(C(F)F)C1)N(CC12CCC(c3nc(C4CC4)no3)(CC1)CC2)c1cccc(-c2nc(C(F)F)co2)c1` (centres unmarked) [Example 43, N-((4-(3-cyclopropyl-1,2,4-oxadiazol-5-yl)bicyclo[2.2.2]octan-1-yl)methyl)-3-(difluoromethyl)-N-(3-(4-(difluoromethyl)oxazol-2-yl)phenyl)cyclobutane-1-carboxamide] belongs 851 nM; to `CC(C)c1noc(C23CCC(CN(C(=O)C45CC(F)(C4)C5)c4cccc(-c5nc(C6CC6)no5)c4)(CC2)CC3)n1` [Example 89, N-(3-(3-cyclopropyl-1,2,4-oxadiazol-5-yl)phenyl)-3-fluoro-N-((4-(3-isopropyl-1,2,4-oxadiazol-5-yl)bicyclo[2.2.2]octan-1-yl)methyl)bicyclo[1.1.1]pentane-1-carboxamide], 47 nM; to `O=C(C1CCC(F)(F)C1)N(CC12CCC(c3nnc(C4CC4)o3)(CC1)CC2)c1cccc(-c2nnc(C3CC3)o2)c1` (racemic) [Example 133, N-((4-(5-cyclopropyl-1,3,4-oxadiazol-2-yl)bicyclo[2.2.2]octan-1-yl)methyl)-N-(3-(5-cyclopropyl-1,3,4-oxadiazol-2-yl)phenyl)-3,3-difluorocyclopentane-1-carboxamide], 293 nM. To `O=C(N(CC12CCC(c3nc(CC4CC4)no3)(CC1)CC2)c1cccc(-c2nc(C3CC3)no2)c1)C12CC(F)(C1)C2` [Example 68, N-(3-(3-cyclopropyl-1,2,4-oxadiazol-5-yl)phenyl)-N-((4-(3-(cyclopropylmethyl)-1,2,4-oxadiazol-5-yl)bicyclo[2.2.2]octan-1-yl)methyl)-3-fluorobicyclo[1.1.1]pentane-1-carboxamide] belongs 110 nM; to `CC(F)(F)c1nc(C23CCC(CN(C(=O)C45CC(F)(C4)C5)c4cccc(-c5nc(C6CC6)no5)c4)(CC2)CC3)no1` [Example 121, N-(3-(3-cyclopropyl-1,2,4-oxadiazol-5-yl)phenyl)-N-((4-(5-(1,1-difluoroethyl)-1,2,4-oxadiazol-3-yl)bicyclo[2.2.2]octan-1-yl)methyl)-3-fluorobicyclo[1.1.1]pentane-1-carboxamide], 22 nM; to `O=C(C1CC(F)(F)C1)N(CC12CCC(c3nc(C4CC4)co3)(CC1)CC2)c1cccc(-c2cnc(C3CC3)o2)c1` [Example 83, N-((4-(4-cyclopropyloxazol-2-yl)bicyclo[2.2.2]octan-1-yl)methyl)-N-(3-(2-cyclopropyloxazol-5-yl)phenyl)-3,3-difluorocyclobutane-1-carboxamide], 590 nM. To `O=C(N(CC12CCC(c3nc(C4CC4)no3)(CC1)CC2)c1cccc(-c2nnc(C3CC3)o2)c1)C12CC(F)(C1)C2` [Example 86, N-((4-(3-cyclopropyl-1,2,4-oxadiazol-5-yl)bicyclo[2.2.2]octan-1-yl)methyl)-N-(3-(5-cyclopropyl-1,3,4-oxadiazol-2-yl)phenyl)-3-fluorobicyclo[1.1.1]pentane-1-carboxamide] belongs 123 nM; to `Cc1cnc(C23CCC(CN(C(=O)C45CC(F)(C4)C5)c4cccc(-c5nc(C(F)F)co5)c4)(CC2)CC3)o1` [Example 45, N-(3-(4-(difluoromethyl)oxazol-2-yl)phenyl)-3-fluoro-N-((4-(5-methyloxazol-2-yl)bicyclo[2.2.2]octan-1-yl)methyl)bicyclo[1.1.1]pentane-1-carboxamide], 258 nM; to `O=C(N(CC12CCC(c3nc(C4CC4)no3)(CC1)CC2)c1cccc(-c2nc(CCl)co2)c1)C12CC(F)(C1)C2` [Example 14, N-(3-(4-(chloromethyl)oxazol-2-yl)phenyl)-N-((4-(3-cyclopropyl-1,2,4-oxadiazol-5-yl)bicyclo[2.2.2]octan-1-yl)methyl)-3-fluorobicyclo[1.1.1]pentane-1-carboxamide], 166 nM. Take `CC1(c2nc(-c3cccc(N(CC45CCC(c6nc(C7CC7)no6)(CC4)CC5)C(=O)C45CC(F)(C4)C5)c3)no2)COC1` [Example 113, N-((4-(3-cyclopropyl-1,2,4-oxadiazol-5-yl)bicyclo[2.2.2]octan-1-yl)methyl)-3-fluoro-N-(3-(5-(3-methyloxetan-3-yl)-1,2,4-oxadiazol-3-yl)phenyl)bicyclo[1.1.1]pentane-1-carboxamide]: a half-maximal effect (EC50) was put at 121 nM. This EC50 and that of the compound before are within 1.5-fold of each other. In the case of `O=C(N(CC12CCC(c3nc(C4CC4)no3)(CC1)CC2)c1cccc(-c2noc(C3CC3)n2)c1)C12CC(F)(C1)C2` [Example 104, N-(3-(5-cyclopropyl-1,2,4-oxadiazol-3-yl)phenyl)-N-((4-(3-cyclopropyl-1,2,4-oxadiazol-5-yl)bicyclo[2.2.2]octan-1-yl)methyl)-3-fluorobicyclo[1.1.1]pentane-1-carboxamide] it was 60 nM; in that of `O=C(N(CC12CCC(c3nc(C4CC4)no3)(CC1)OC2)c1cccc(-c2noc(C(F)F)n2)c1)C12CC(F)(C1)C2` [Example 204, N-((1-(3-cyclopropyl-1,2,4-oxadiazol-5-yl)-2-oxabicyclo[2.2.2]octan-4-yl)methyl)-N-(3-(5-(difluoromethyl)-1,2,4-oxadiazol-3-yl)phenyl)-3-fluorobicyclo[1.1.1]pentane-1-carboxamide], 371 nM.

For the compound `O=C(C1CC(F)(F)C1)N(CC12CCC(c3nc(C4CC4)cs3)(CC1)CC2)c1cccc(-c2nc(C3CC3)no2)c1` [Example 101, N-(3-(3-cyclopropyl-1,2,4-oxadiazol-5-yl)phenyl)-N-((4-(4-cyclopropylthiazol-2-yl)bicyclo[2.2.2]octan-1-yl)methyl)-3,3-difluorocyclobutane-1-carboxamide], a half-maximal response (EC50) required 635 nM.

In turn, `Cc1noc(C23CCC(CN(C(=O)C45CC(F)(C4)C5)c4cccc(-c5cnc(C6CCOCC6)o5)c4)(CC2)CC3)n1` [Example 34, 3-Fluoro-N-((4-(3-methyl-1,2,4-oxadiazol-5-yl)bicyclo[2.2.2]octan-1-yl)methyl)-N-(3-(2-(tetrahydro-2H-pyran-4-yl)oxazol-5-yl)phenyl)bicyclo[1.1.1]pentane-1-carboxamide] yielded an EC50 of 1520 nM. To `O=C(N(CC12CCC(c3nnc(C4CC4)o3)(CC1)CC2)c1cccc(-c2nnc(C3CC3)o2)c1)C12CC(F)(C1)C2` [Example 136, N-((4-(5-cyclopropyl-1,3,4-oxadiazol-2-yl)bicyclo[2.2.2]octan-1-yl)methyl)-N-(3-(5-cyclopropyl-1,3,4-oxadiazol-2-yl)phenyl)-3-fluorobicyclo[1.1.1]pentane-1-carboxamide] belongs 141 nM; to `Cn1nc(C2CC2)cc1C12CCC(CN(C(=O)C34CC(F)(C3)C4)c3cccc(-c4noc(C5(C)CC5)n4)c3)(CC1)CC2` [Example 166, N-((4-(3-cyclopropyl-1-methyl-1H-pyrazol-5-yl)bicyclo[2.2.2]octan-1-yl)methyl)-3-fluoro-N-(3-(5-(1-methylcyclopropyl)-1,2,4-oxadiazol-3-yl)phenyl)bicyclo[1.1.1]pentane-1-carboxamide], 82 nM; to `CC(N(C(=O)C12CC(F)(C1)C2)c1cccc(-c2nc(C3CC3)no2)c1)C12CCC(c3nc(C4CC4)no3)(CC1)CC2` (single isomer, unassigned) [Example 218, N-(1-(4-(3-cyclopropyl-1,2,4-oxadiazol-5-yl)bicyclo[2.2.2]octan-1-yl)ethyl)-N-(3-(3-cyclopropyl-1,2,4-oxadiazol-5-yl)phenyl)-3-fluorobicyclo[1.1.1]pentane-1-carboxamide], 1120 nM.

Compound `Cn1nc(C2CC2)cc1C12CCC(CN(C(=O)C34CC(F)(C3)C4)c3cccc(-c4noc(C(C)(C)C)n4)c3)(CC1)CC2` [Example 165, N-(3-(5-(tert-butyl)-1,2,4-oxadiazol-3-yl)phenyl)-N-((4-(3-cyclopropyl-1-methyl-1H-pyrazol-5-yl)bicyclo[2.2.2]octan-1-yl)methyl)-3-fluorobicyclo[1.1.1]pentane-1-carboxamide] came in with an EC50 of 124 nM.
